The source of these data is patent US11149054B2, “Oxysterols and methods of use thereof” (Sage Therapeutics, Inc., priority 2016, dated 2021).

Read-outs that look alike come from different tables or passages of the source.

By EC50 is commonly meant the concentration giving half of the maximal effect. A word on the Emax: it is the maximal effect, on the per cent scale that the assay sets.

Assay [1] addresses GlunN1/GluN2A glutamate receptors (Homo sapiens (Human), UniProt Q05586+Q12879). Nature of the assay: Whole-cell patch clamp of mammalian cells (Ionworks Barracuda), positive allosteric modulation, GluN1/GluN2A. It counts as cell-based. As for the experimental part: (§1) The measurements were performed using Ion Works Barracuda platform following this procedure:
(§2) Electrophysiological Procedures:
(§3) • a) Intracellular solution (mM): 50 mM CsCl, 90 mM CsF, 2 mM MgCl2, 5 mM EGTA, 10 mM HEPES. Adjust to pH 7.2 with CsOH. • b) Extracellular solution, HB-PS (composition in mM): NaCl, 137; KCl, 1.0; CaCl2), 5; HEPES, 10; Glucose, 10; pH adjusted to 7.4 with NaOH (refrigerated until use). • c) Holding potential: −70 mV, potential during agonist/PAM application: −40 mV. Recording Procedure: • a) Extracellular buffer will be loaded into the PPC plate wells (11 μL per well). Cell suspension will be pipetted into the wells (9 μL per well) of the PPC planar electrode. • b) Whole-cell recording configuration will be established via patch perforation with membrane currents recorded by on-board patch clamp amplifiers. • c) Two recordings (scans) will be performed. First, during pre-application of test article alone (duration of pre-application—[…]) and second, during test articles and agonist (EC20 L-glutamate and 30 μM glycine) co-application to detect positive modulatory effects of the test article. […] Potentiating Effect of Positive Allosteric Modulators (PAM) on the Channel
(§4) PAM concentration-response data will be fitted to an equation of the form: % Activation=% L-glutamate EC20+{(% MAX−% L-glutamate EC20)/[1+([Test]/EC50)^N]}, where [Test] will be the concentration of PAM (test article), EC50 will be the concentration of PAM producing half-maximal activation, N will be the Hill coefficient, % L-glutamate EC20 will be the percentage of the current Elicited with L-glutamate EC20, % MAX is the percentage of the current activated with the highest dose of PAM co-admitted with L-glutamate EC20 and % Activation will be the percentage of the current elicited with L-glutamate EC10-30 at each PAM concentration. The maximal amplitude of the evoked currents are measured and defined as Peak Current Amplitude (PCA).
On the technique in general: Patch clamp records ionic current or voltage across a cell membrane.

The target in assay [2] is GluN2B glutamate receptors (Homo sapiens (Human), UniProt Q05586+Q13224). Nature of the assay: Whole-cell patch clamp of mammalian cells (Ionworks Barracuda), positive allosteric modulation, GluN2B. The settings on record: for Emax: read-out: Avg Emax 2B (%). It counts as cell-based. As for the experimental part:
as §1, §2, §3, §4

Where [3] appears, read: HEK293 cells, % potentiation of current elicited with EC20 L-glutamate and 30 μM glycine, read-out: Avg Emax 2A (%).
The mark [4] stands for this setting: % potentiation of current elicited with EC20 L-glutamate and 30 μM glycine.
Setting [5] is: HEK293 cells, co-application with EC20 L-glutamate and 30 μM glycine, 8-point concentration-response, read-out: Avg EC50 2A.
[6] abbreviates: co-application with EC20 L-glutamate and 30 μM glycine, 8-point concentration-response, read-out: Avg EC50 2B.

Chain of GlunN1/GluN2A glutamate receptors (Q12879 23-1464, other chains not shown): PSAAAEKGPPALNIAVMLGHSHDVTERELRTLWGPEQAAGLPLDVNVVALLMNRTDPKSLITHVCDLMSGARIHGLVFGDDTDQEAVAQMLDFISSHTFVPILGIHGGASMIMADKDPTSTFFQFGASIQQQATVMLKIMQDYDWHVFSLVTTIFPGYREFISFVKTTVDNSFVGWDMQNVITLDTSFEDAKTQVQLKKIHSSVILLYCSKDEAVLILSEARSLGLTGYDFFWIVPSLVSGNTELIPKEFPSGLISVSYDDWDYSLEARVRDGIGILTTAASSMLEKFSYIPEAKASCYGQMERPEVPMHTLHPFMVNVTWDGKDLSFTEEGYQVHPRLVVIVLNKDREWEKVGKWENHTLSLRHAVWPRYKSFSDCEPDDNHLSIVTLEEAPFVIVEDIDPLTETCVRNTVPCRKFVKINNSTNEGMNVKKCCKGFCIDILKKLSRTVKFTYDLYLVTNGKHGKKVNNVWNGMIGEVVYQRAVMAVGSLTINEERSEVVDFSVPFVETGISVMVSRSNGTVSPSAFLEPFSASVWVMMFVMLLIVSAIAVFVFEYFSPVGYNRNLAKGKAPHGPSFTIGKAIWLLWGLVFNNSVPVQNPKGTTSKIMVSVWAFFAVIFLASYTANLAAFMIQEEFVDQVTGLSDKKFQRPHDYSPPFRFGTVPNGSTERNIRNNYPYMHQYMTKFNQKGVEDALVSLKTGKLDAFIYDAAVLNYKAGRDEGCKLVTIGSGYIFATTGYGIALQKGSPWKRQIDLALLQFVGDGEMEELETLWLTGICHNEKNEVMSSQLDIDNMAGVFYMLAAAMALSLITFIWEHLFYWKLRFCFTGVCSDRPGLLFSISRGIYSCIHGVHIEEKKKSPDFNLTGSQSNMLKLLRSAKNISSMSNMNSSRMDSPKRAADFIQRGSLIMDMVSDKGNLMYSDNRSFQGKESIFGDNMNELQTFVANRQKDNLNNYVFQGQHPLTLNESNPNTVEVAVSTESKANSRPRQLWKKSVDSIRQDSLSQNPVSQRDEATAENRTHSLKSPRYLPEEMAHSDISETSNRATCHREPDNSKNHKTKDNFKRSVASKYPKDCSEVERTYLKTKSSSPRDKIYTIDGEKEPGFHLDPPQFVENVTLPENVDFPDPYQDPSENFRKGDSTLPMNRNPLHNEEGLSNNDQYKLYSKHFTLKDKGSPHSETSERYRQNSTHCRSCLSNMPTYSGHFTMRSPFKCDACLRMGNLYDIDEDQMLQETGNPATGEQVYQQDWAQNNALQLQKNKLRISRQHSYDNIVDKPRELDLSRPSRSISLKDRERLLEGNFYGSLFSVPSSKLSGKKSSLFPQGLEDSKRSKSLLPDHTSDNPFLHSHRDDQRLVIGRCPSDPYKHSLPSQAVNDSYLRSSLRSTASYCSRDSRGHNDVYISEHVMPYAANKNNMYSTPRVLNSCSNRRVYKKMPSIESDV
Chain of GluN2B glutamate receptors (Q13224 27-1484, other chains not shown): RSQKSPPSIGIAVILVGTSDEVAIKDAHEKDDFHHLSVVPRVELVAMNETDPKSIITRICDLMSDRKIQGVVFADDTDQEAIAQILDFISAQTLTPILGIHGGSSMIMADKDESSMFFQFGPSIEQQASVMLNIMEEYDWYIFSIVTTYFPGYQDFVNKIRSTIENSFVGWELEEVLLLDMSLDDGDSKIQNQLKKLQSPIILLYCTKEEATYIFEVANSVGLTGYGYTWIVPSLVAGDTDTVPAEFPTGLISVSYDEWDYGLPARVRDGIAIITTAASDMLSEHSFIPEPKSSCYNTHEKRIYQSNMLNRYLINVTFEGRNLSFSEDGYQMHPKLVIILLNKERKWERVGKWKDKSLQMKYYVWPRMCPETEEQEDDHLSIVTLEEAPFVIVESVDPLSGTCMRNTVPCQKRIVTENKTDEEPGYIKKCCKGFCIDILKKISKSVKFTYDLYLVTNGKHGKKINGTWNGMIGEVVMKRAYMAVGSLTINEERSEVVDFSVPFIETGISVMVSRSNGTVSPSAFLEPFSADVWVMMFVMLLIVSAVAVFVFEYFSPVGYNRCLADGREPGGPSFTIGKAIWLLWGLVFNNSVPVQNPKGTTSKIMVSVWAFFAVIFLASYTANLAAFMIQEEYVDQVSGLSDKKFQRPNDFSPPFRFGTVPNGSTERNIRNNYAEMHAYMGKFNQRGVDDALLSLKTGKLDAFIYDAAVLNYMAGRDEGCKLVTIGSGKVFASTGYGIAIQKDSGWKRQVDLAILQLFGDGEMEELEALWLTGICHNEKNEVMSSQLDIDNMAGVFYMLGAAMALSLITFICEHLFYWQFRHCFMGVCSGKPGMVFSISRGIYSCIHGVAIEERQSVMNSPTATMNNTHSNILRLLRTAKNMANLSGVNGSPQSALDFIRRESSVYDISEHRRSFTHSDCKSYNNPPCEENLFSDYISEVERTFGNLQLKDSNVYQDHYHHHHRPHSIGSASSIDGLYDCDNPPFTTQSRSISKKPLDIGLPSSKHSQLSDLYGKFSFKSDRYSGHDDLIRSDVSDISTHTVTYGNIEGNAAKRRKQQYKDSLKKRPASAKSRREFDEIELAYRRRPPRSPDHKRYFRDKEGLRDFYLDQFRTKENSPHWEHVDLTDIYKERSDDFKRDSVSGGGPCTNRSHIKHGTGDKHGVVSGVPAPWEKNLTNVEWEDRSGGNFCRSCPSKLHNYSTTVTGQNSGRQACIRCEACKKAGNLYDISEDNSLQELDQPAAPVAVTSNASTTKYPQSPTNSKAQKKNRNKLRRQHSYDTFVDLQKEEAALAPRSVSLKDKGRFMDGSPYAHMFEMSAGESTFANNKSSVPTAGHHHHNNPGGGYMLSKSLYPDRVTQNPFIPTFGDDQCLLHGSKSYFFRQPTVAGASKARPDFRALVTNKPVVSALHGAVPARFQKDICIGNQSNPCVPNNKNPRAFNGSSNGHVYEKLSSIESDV

On to `CC[C@]1(O)CC[C@@]2(C)C(=CC[C@H]3[C@@H]4CC[C@H]([C@H](C)CC[C@@H](O)c5ccc(C#N)cc5)[C@@]4(C)CC[C@@H]32)C1` (single isomer, unassigned) [Compound 6680], for which the EC50 in assay [1] stood at 1370 nM; in assay [2], 464 nM. The Emax is 175% in assay [1] (setting [3]) and 123% in assay [2] (setting [4]).

`CC[C@]1(O)CC[C@@]2(C)C(=CC[C@H]3[C@@H]4CC[C@H]([C@H](C)CC[C@H](O)c5ccc(C#N)cc5)[C@@]4(C)CC[C@@H]32)C1` (single isomer, unassigned) [Compound 6681]: the results for the EC50 in assay [1] and in assay [2] were 365 nM and 360 nM, respectively. In addition, the results for the Emax in assay [1] (setting [3]) and in assay [2] (setting [4]) were 172% and 165%, respectively.

On to `CC[C@]1(O)CC[C@@]2(C)C(=CC[C@H]3[C@@H]4CC[C@H]([C@H](C)CC[C@@H](O)c5cccc(F)c5)[C@@]4(C)CC[C@@H]32)C1` (single isomer, unassigned) [Compound 6895], for which the concentration for a half-maximal effect (EC50) stood at 174 nM in assay [1] and 329 nM in assay [2]. Further, the Emax in assay [1] (setting [3]) turned out to be 241%; in assay [2] (setting [4]), 354%.

Take `CC[C@]1(O)CC[C@@]2(C)C(=CC[C@H]3[C@@H]4CC[C@H]([C@H](C)CC[C@H](O)c5ccccc5F)[C@@]4(C)CC[C@@H]32)C1` (single isomer, unassigned) [Compound 7281]: the EC50 in assay [1] came to 248 nM; in assay [2], 303 nM.

On to `CC[C@]1(O)CC[C@H]2C(=CC[C@@H]3[C@@H]2CC[C@]2(C)[C@@H]([C@H](C)CC[C@@]4(O)CCOC4)CC[C@@H]32)C1` (single isomer, unassigned) [Compound 8602], for which the results for the EC50 in assay [1] and in assay [2] were 1050 nM and 434 nM, respectively.

Consider `C[C@H](CC[C@H](O)C1CCC1)[C@H]1CC[C@H]2[C@@H]3CC[C@H]4C[C@](O)(C(F)(F)F)CC[C@]4(C)[C@H]3CC[C@]12C` [7−A], for which the EC50 in assay [1] was determined as 248 nM; in assay [2], 187 nM. Besides, the figures for the Emax in assay [1] (setting [3]) and in assay [2] (setting [4]) were 544% and 431%, respectively.

With `C[C@H](CC[C@@H](O)C1CCC1)[C@H]1CC[C@H]2[C@@H]3CC[C@H]4C[C@](O)(C(F)(F)F)CC[C@]4(C)[C@H]3CC[C@]12C` [7−B], the results for the EC50 in assay [1] and in assay [2] were 347 nM and 306 nM, respectively. The figures for the Emax in assay [1] (setting [3]) and in assay [2] (setting [4]) were 356% and 352%, respectively.

Turning to `CC(C)[C@@H](O)CC[C@@H](C)[C@H]1CC[C@H]2[C@@H]3CC[C@H]4C[C@@](C)(O)CC[C@@H]4[C@H]3CC[C@]12C` [Compound 1A75], the Emax in assay [1] (setting [3]) came out at 457%; in assay [2] (setting [4]), 308%.

Turning to `CC(C)[C@H](O)CC[C@@H](C)[C@H]1CC[C@H]2[C@@H]3CC[C@H]4C[C@@](C)(O)CC[C@@H]4[C@H]3CC[C@]12C` [Compound 1B75], the Emax in assay [1] (setting [3]) amounted to 279%; in assay [2] (setting [4]), 233%.

As for `CC(C)[C@@H](O)CC[C@@H](C)[C@H]1CC[C@H]2[C@@H]3CC[C@H]4C[C@](O)(C(F)(F)F)CC[C@]4(C)[C@H]3CC[C@]12C` [Compound 2A], the Emax in assay [1] (setting [3]) came to 653%. Moreover, the EC50 in assay [1] (setting [5]) came to 158 nM; in assay [2], 339 nM.

As for `CC(C)[C@H](O)CC[C@@H](C)[C@H]1CC[C@H]2[C@@H]3CC[C@H]4C[C@](O)(C(F)(F)F)CC[C@]4(C)[C@H]3CC[C@]12C` [Compound 2B], the results for the EC50 in assay [1] and in assay [2] were 131 nM and 143 nM, respectively. The results for the Emax in assay [1] (setting [3]) and in assay [2] (setting [4]) were 625% and 965%, respectively.

With `CC(C)C(O)CC[C@@H](C)[C@H]1CC[C@H]2[C@@H]3CC[C@H]4C[C@](O)(C(F)(F)F)CC[C@]4(C)[C@H]3CC[C@]12C` (stereo partly drawn) [Compound 2], the Emax in assay [1] (setting [3]) was determined as 709%; in assay [2] (setting [4]), 605%. Moreover, in assay [2], the EC50 stood at 147 nM.

Regarding `C[C@H](CCC(O)C(C)(C)C)[C@H]1CC[C@H]2[C@@H]3CC[C@H]4C[C@](O)(C(F)(F)F)CC[C@]4(C)[C@H]3CC[C@]12C` (stereo partly drawn) [Compound 3], the EC50 in assay [1] was 185 nM; in assay [2], 338 nM. Moreover, the Emax in assay [1] (HEK293, read-out: Avg Emax 2A (%)) came out at 556%; in assay [2], 532%.

For `CC[C@]1(O)CC[C@H]2[C@@H](CC[C@@H]3[C@@H]2CC[C@]2(C)[C@@H]([C@H](C)CC[C@H](O)C(C)C)CC[C@@H]32)C1` [Compound 4A77], the Emax was 382% in assay [1] (setting [3]) and 254% in assay [2] (setting [4]). Besides, the EC50 in assay [1] (setting [5]) was found to be 427 nM; in assay [2] (setting [6]) it was 285 nM.

Turning to `CC[C@]1(O)CC[C@H]2[C@@H](CC[C@@H]3[C@@H]2CC[C@]2(C)[C@@H]([C@H](C)CC[C@@H](O)C(C)C)CC[C@@H]32)C1` [Compound 4B77], the maximal effect (Emax) was 467% in assay [1] (setting [3]) and 320% in assay [2] (setting [4]). The EC50 in assay [1] (setting [5]) amounted to 467 nM; in assay [2] (setting [6]) it was 298 nM.

Turning to `C[C@H](CC[C@](C)(O)C(F)(F)F)[C@H]1CC[C@H]2[C@@H]3CC[C@H]4C[C@](O)(C(F)(F)F)CC[C@]4(C)[C@H]3CC[C@]12C` [Compound 4], the results for the half-maximal effective concentration (EC50) in assay [1] and in assay [2] were 201 nM and 212 nM, respectively. Also, the maximal effect (Emax) was determined as 663% in assay [1] (setting [3]) and 463% in assay [2] (setting [4]).

As for `C[C@H](CC[C@@H](O)C(F)(F)F)[C@H]1CC[C@H]2[C@@H]3CC[C@H]4C[C@](O)(C(F)(F)F)CC[C@]4(C)[C@H]3CC[C@]12C` [Compound 5], the EC50 came out at 182 nM in assay [1] and 260 nM in assay [2]. In addition, the Emax in assay [1] (setting [3]) worked out at 619%; in assay [2] (setting [4]) it was 455%.

Regarding `C[C@H](O)CC[C@@H](C)[C@H]1CC[C@H]2[C@@H]3CC[C@H]4C[C@](O)(C(F)(F)F)CC[C@]4(C)[C@H]3CC[C@]12C` [Compound 6], the values for the EC50 in assay [1] and in assay [2] were 248 nM and 733 nM, respectively.

Regarding `C[C@H](CCC(O)C1CCC1)[C@H]1CC[C@H]2[C@@H]3CC[C@H]4C[C@](O)(C(F)(F)F)CC[C@]4(C)[C@H]3CC[C@]12C` (stereo partly drawn) [Compound 7], the Emax in assay [1] (setting [3]) was found to be 516%; in assay [2] (setting [4]), 484%. In addition, the results for the EC50 in assay [1] (setting [5]) and in assay [2] (setting [6]) were 300 nM and 287 nM, respectively.

As for `C[C@H](CCC1(O)CCC(F)(F)CC1)[C@H]1CC[C@H]2[C@@H]3CC[C@H]4C[C@](O)(C(F)(F)F)CC[C@]4(C)[C@H]3CC[C@]12C` [Compound 8], the EC50 in assay [1] was 446 nM; in assay [2] it was 372 nM.

For `C[C@H](CCC(O)C1CCOCC1)[C@H]1CC[C@H]2[C@@H]3CC[C@H]4C[C@](O)(C(F)(F)F)CC[C@]4(C)[C@H]3CC[C@]12C` (stereo partly drawn) [Compound 9], the values for the EC50 in assay [1] and in assay [2] were 317 nM and 234 nM, respectively. For the same compound, the figures for the Emax in assay [1] (setting [3]) and in assay [2] (setting [4]) were 181% and 271%, respectively.

Turning to `C[C@H](CCC1(O)CCOCC1)[C@H]1CC[C@H]2[C@@H]3CC[C@H]4C[C@](O)(C(F)(F)F)CC[C@]4(C)[C@H]3CC[C@]12C` [Compound 11], the Emax in assay [1] (setting [3]) worked out at 151%; in assay [2] (setting [4]), 157%.

Take `C[C@H](CCC(O)c1ccncc1)[C@H]1CC[C@H]2[C@@H]3CC=C4C[C@@](C)(O)CC[C@]4(C)[C@H]3CC[C@]12C` (stereo partly drawn) [Compound 154]: the Emax in assay [1] (setting [3]) was 18.2%. The EC50 in assay [1] (setting [5]) is more than 10000 nM.

On to `C[C@H](CC[C@]1(O)CCOC1)[C@H]1CC[C@H]2[C@@H]3CC=C4C[C@](O)(C(F)(F)F)CC[C@]4(C)[C@H]3CC[C@]12C` [Compound 3496], for which, in assay [1], the EC50 was found to be 35.1 nM.

Take `C[C@H](CC[C@]1(O)CC[C@H](C)CC1)[C@H]1CC[C@H]2[C@@H]3CC[C@H]4C[C@](O)(C(F)(F)F)CC[C@]4(C)[C@H]3CC[C@]12C` [Compound 3877]: in assay [2], the EC50 is 512 nM.

For the compound `CC[C@]1(O)CC[C@@]2(C)C(=CC[C@H]3[C@@H]4CC[C@H]([C@H](C)CC[C@H](O)c5ccc(F)cc5)[C@@]4(C)CC[C@@H]32)C1` [Compound 7146], the EC50 in assay [2] was 216 nM.

For `C[C@H](CC[C@@](C)(O)c1ccccc1)[C@H]1CC[C@H]2[C@@H]3CC=C4C[C@@](C)(O)CC[C@]4(C)[C@H]3CC[C@]12C` [Compound 7467], in assay [2], the EC50 is more than 10000 nM.
